# Read-outs that look alike come from different tables or passages of the source.
# Tests used:
# [1] = tested on: fifteen year old Dalmatian diagnosed with idiopathic epilepsy; assay: Example 2 case: Dalmatian with idiopathic epilepsy; assay type: in vivo, canine; conditions: treatment subsequently discontinued
# Text: A fifteen year old Dalmatian was diagnosed with idiopathic epilepsy at age 3. Seizure phases of prodrome, aura, ictus, and postictal state were generally one to two […] in length. […] Subsequent treatment was proscribed in the form of an MCT diet (commercially available ProPlan® Senior 7+Chicken and Rice formula formulated to contain 5.6% MCTs, at least 26% crude protein, at least 15% crude fat, and 50% carbohydrates with less than 2% as crude fiber).
# [2] = Crossover dietary trial: serum AED concentration; assay type: in vivo, canine; conditions: for concentration at 3 months: both sexes, mixed: 17 different breeds and cross breeds, dog, in vivo, read-out: serum concentration of PB
# Experimental: A 6-month prospective, randomized, double blinded, placebo controlled, crossover dietary trial comparing an MCT-containing diet to a standardized placebo diet containing no MCTs in canine epilepsy was performed. Subjects were fed either the MCT or placebo diet for 3 months (Day 1 to Day 90±2 days) followed by a subsequent respective switch of diet for a further 3 months (Day 90 to Day 180±2 days). Relevant data were collected on the following variables at visit 1 (Day −2), visit 2 (Day 90±2 days) and visit 3 (day 180±2 days): seizure frequency; body weight; measurements of serum phenobarbital (PB) and/or (potassium bromide) KBr concentration as appropriate; dynamic bile acids; complete blood cell count; standard clinical serum chemistry; and adverse events.
# Seizure frequency refers to the number of seizures per month and seizure-days refers to the number of days in a month with seizure occurrence. The severity of seizures was analyzing using the McNemar test by comparing the presence of cluster seizures between diet groups. Comparisons made between the MCT and placebo standardized diet groups were made using match-paired student's t tests for parametric data and Wilcoxon matched-pairs signed rank test for non-parametric data where both were used two-sided and P<0.05 was considered significant. Non-parametric data are presented as median (25-75% percentile) and parametric data are shown as mean (+/−SD).
# The present study used twenty-one dogs of 17 different canine breeds including: American bulldog; 2 Beagles; 2 Border Collies; Boxer; Cavalier King Charles Spaniel; English Bull Terrier; English Springer Spaniel; German Shepherd; Golden Retriever; Lhasa Apso; Mastiff; Rhodesian Ridgeback; Saint Bernard; Siberian Husky; Slovakian Rough Haired Pointer; Welsh Springer Spaniel and 3 Cross breeds. The study population consisted of 15 males, of which 10 were neutered and 5 were intact and 6 females of which 4 were neutered and 2 were intact. The dogs were of 4.59±1.73 years of age and weighed 29.79±14.73 kilograms at start of trial. All 21 dogs received PB. Most dogs were also treated additionally with KBr (n=18). Some dogs were chronically treated with a third AED, imepitoin (n=1) or levetiracetam (n=4). Twelve owners had rectal diazepam or levetiracetam for pulse therapy at home available for the acute treatment of cluster seizure episodes. There was no difference for the acute or chronic treatment regimens between the placebo or MCT phase.
SMILES,side effects [1],"serum concentration of potassium bromide ([2]; MCT diet, spread 1.02-1.61 mg/ml, p=0.4037, no significant change) [µg/mL]","serum concentration of potassium bromide ([2]; placebo-standardized diet, spread 1.09-1.89 mg/ml) [µg/mL]","concentration at 3 months ([2]; MCT diet, spread 25.00-36.75 μg/ml, p=0.4233, no significant change) [µg/mL]","concentration at 3 months ([2]; placebo-standardized diet, spread 23.50-34.00 μg/ml) [µg/mL]"
[Br-].[K+] [potassium bromide],"polyphagia, sedation, and ataxia",1290,1230,,
"CCC1(c2ccccc2)C(=O)NC(=O)NC1=O [PB, phenobarbital]",,,,32.5,26.5

# From patent US10668041B2, “Compositions and methods comprising medium chain triglycerides for treatment of epilepsy” (Societe des Produits Nestle SA, priority 2014, dated 2020)
